Tested on: freshly abraided skin on a finger knuckle
Assay: standard sting test on abraded finger knuckle skin
Assay type: in vivo, human
Conditions: for stinging of aliphatic hydrocarbon diluent solvents (in words): neat alkane on abraded skin
Description: The preparations described above were applied to skin that had been carefully abraided shortly before testing to determine whether the stinging and discomfort caused by collodion application could be suppressed by one or more of these agents. The procedure used was to manually scour a finger knuckle using 100 grit garnet sandpaper just to the point of slight bleeding, and then allowing the skin to rest a minute or so until any discomfort, i.e., sensation of irritation, pain or heat, had disappeared prior to challenging the abrasion with a potential chemical irritant. The resultant stinging sensation was compared to that produced with the unmodified commercial New Skin™ collodion product (the “control”). Sting (also termed and described as “burning sensation”) was rated on a five level scale as follows: (−) no sting, (+/−) barely detectable sting, (+) slight sting, (++) moderate sting, (+++) strong sting. […] This method of testing and scoring the level or magnitude of the stinging sensation is referred to herein as the “sting test” or “standard sting test.”
Using the “standard sting test” described above, and similarly abraded skin on a finger knuckle, individual collodion ingredients were tested neat (undiluted). Accordingly, a droplet or two of the mixture or the chemical ingredient was placed on freshly abraided skin.
Several new chemicals and solvents of potential interest were tested, and others that were formerly tested (all in their neat state) were re-tested using the standard sting test procedure and accompanying scoring system described above. Applicant's strategy behind this testing was to find a true solvent or alternatively, a combination of true solvent and either co-solvent or diluent, that would have sufficient volatility to allow rapid drying of a collodion coating without causing stinging when applied to the skin.

[1] = additional testing and re-testing of chemicals and solvents in their neat state, standard sting test
[2] = individual collodion ingredients tested neat (undiluted), a droplet or two on freshly abraided skin

Compound	LEVEL OF STING [1]	also measured
CC(C)O [Isopropyl Alcohol]	++	LEVEL OF STING [2]: ++
CC(C)=O [Acetone]	+++	
CCO [Ethyl Alcohol]	+++	LEVEL OF STING [2]: +++
CCCCOC(C)=O [n-Butyl Acetate]	+/−	LEVEL OF STING [2]: +/−
CO [Methyl alcohol]	+++	
CC(CO)CO [Methyl propanediol]	+	
CCCOC(C)=O [n-Propyl acetate]	+	
CCC(C)=O [Methyl ethyl ketone]	+++	
Isohexane (e.g., 2-methyl pentane and other isomers)	−	
CCCC(C)=O [Methyl propyl ketone]	++	
CC(C)CO [isobutyl alcohol]	+	
CCCCC [n-pentane]		stinging of aliphatic hydrocarbon diluent solvents (in words): none of the aliphatic hydrocarbon diluent solvents that were tested caused any stinging
Castor Oil		LEVEL OF STING (in vivo): −
CCOC(C)=O [Ethyl Acetate]		LEVEL OF STING (in vivo): +++
CC(=O)OC(C)C [Isopropyl acetate]	+	
CCCCCOC(C)=O [Amyl Acetate (mixed isomers), Amyl Acetate]	+/−	LEVEL OF STING [2]: +/−
CC(=O)OC(C)(C)C [tert-Butyl acetate]	+/−	
COC(C)=O [Methyl acetate]	+++	
CCCCCO [n-amyl alcohol]	+	
CCCCCCCC [n-Octane]	−	stinging of aliphatic hydrocarbon diluent solvents (in words): none of the aliphatic hydrocarbon diluent solvents that were tested caused any stinging
CCCCCC [n-Hexane]	−	stinging of aliphatic hydrocarbon diluent solvents (in words): none of the aliphatic hydrocarbon diluent solvents that were tested caused any stinging
CCCCCCC [n-Heptane]	−	stinging of aliphatic hydrocarbon diluent solvents (in words): none of the aliphatic hydrocarbon diluent solvents that were tested caused any stinging
